Assay results taken from patent publication US5116834A, “Quinolinecarboxylic acid antibacterial agents” (Warner-Lambert Company, priority 1991, dated 1992).
Values after ≈ are worked out from the molar mass of the structure shown.

Experiments:
Experiment in all cases: In vitro antibacterial activity, microtitration dilution method (MIC)
Type in all cases: cell-based
[1] = system: Enterobacter cloacae MA 2646; conditions: MA2646, read-out: Minimal Inhibitory Concentration (MIC)
From the text: (§1) The compounds of the invention display anti-bacterial activity when tested by the microtitration dilution method as described in Heifetz, et al, Antimicr. Agents & Chemoth., 6, 124 (1974), which is incorporated herein by reference.
(§2) By use of the above reference method, the following minimum inhibitory concentration value (MICs in μg/mL) shown in Table I were obtained for representative compounds of the invention.

Escherichia coli H56 = conditions: read-out: Minimal Inhibitory Concentration (MIC)
From the text: as §1, §2

Escherichia coli Vogel = conditions: read-out: Minimal Inhibitory Concentration (MIC)
From the text: as §1, §2

Proteus rettgeri M 1771 = conditions: Providencia rettgeri, M1771, read-out: Minimal Inhibitory Concentration (MIC)
From the text: as §1, §2

[2] = system: Pseudomonas aeroginosa UI-18; conditions: UI18, read-out: Minimal Inhibitory Concentration (MIC)
From the text: as §1, §2

[3] = system: Staphylococcus aureus UC-76; conditions: UC76, read-out: Minimal Inhibitory Concentration (MIC)
From the text: as §1, §2

[4] = system: Streptococcus faecalis MGH-2; conditions: Enterococcus faecalis, MGH2, read-out: Minimal Inhibitory Concentration (MIC)
From the text: as §1, §2

[5] = system: Streptococcus pyogenes C-203; conditions: C203, read-out: Minimal Inhibitory Concentration (MIC)
From the text: as §1, §2

[6] = system: Klebsiella pneumoniae MGH-2; conditions: MGH2, read-out: Minimal Inhibitory Concentration (MIC)
From the text: (§3) The compounds of the invention display anti-bacterial activity when tested by the microtitration dilution method as described in Heifetz, et al, […]. Agents & Chemoth., 6, 124 (1974), which is incorporated herein by reference. By use of the above reference method, the following minimum inhibitory concentration value (MICs in μg/mL) shown in Table I were obtained for representative compounds of the invention.

[7] = system: Staphylococcus aureus H228; conditions: read-out: Minimal Inhibitory Concentration (MIC)
From the text: as §3

[8] = system: Streptococcus pneumoniae SV-1; conditions: SV1, read-out: Minimal Inhibitory Concentration (MIC)
From the text: as §3

MIC [1] [µg/mL] | MIC (Escherichia coli H56) [µg/mL] | MIC (Escherichia coli Vogel) [µg/mL] | MIC (Proteus rettgeri M 1771) [µg/mL] | MIC [2] [µg/mL] | MIC [3] [µg/mL] | MIC [4] [µg/mL] | MIC [5] [µg/mL] | MIC [6] [µg/mL] | MIC [7] [µg/mL] | MIC [8] [µg/mL] | SMILES
0.1 (≈ 0.269 µM) | 0.05 (≈ 0.135 µM) | 0.1 (≈ 0.269 µM) | 0.4 (≈ 1.08 µM) | 1.6 (≈ 4.31 µM) | 0.1 (≈ 0.269 µM) | 0.4 (≈ 1.08 µM) | 0.2 (≈ 0.538 µM) | 0.2 (≈ 0.538 µM) | 0.2 (≈ 0.538 µM) | 0.2 (≈ 0.538 µM) | C=Cc1c(N2CCNC(C)C2)c(F)cc2c(=O)c(C(=O)O)cn(C3CC3)c12 (stereo not drawn) [Ex. 1, 1-Cyclopropyl-8-ethenyl-6-fluoro-1,4-dihydro-7-(3-methyl-1-piperazinyl)-4-oxo-3-quinolinecarboxylicacid]
0.2 (≈ 0.501 µM) | 0.1 (≈ 0.25 µM) | 0.1 (≈ 0.25 µM) | 0.4 (≈ 1 µM) | 3.1 (≈ 7.76 µM) | 0.003 (≈ 0.00751 µM) | 0.013 (≈ 0.0325 µM) | 0.013 (≈ 0.0325 µM) | 0.4 (≈ 1 µM) | 0.006 (≈ 0.015 µM) | 0.003 (≈ 0.00751 µM) | C=Cc1c(N2CC[C@@H](CNCC)C2)c(F)cc2c(=O)c(C(=O)O)cn(C3CC3)c12 [Ex. 3, 1-Cyclopropyl-8-ethenyl-7-[3(S)-(ethylamino)methyl-1-pyrrolidine]-6-fluoro-1,4-dihydro-4-oxo-3-quinolinecarboxylic acid]

SMILES | MIC [1] [µg/mL] | MIC (Escherichia coli H56) [µg/mL] | MIC (Escherichia coli Vogel) [µg/mL] | MIC (Proteus rettgeri M 1771) [µg/mL] | MIC [2] [µg/mL] | MIC [3] [µg/mL] | MIC [4] [µg/mL] | MIC [5] [µg/mL] | MIC [6] [µg/mL] | MIC [7] [µg/mL] | MIC [8] [µg/mL]
C=Cc1c(N2CCNCC2)c(F)cc2c(=O)c(C(=O)O)cn(C3CC3)c12 [Ex. 2, 1-Cyclopropyl-8-ethenyl-6-fluoro-1,4-dihydro-4-oxo-7-(1-piperazinyl)-3-quinolinecarboxylic acid] | 0.1 (≈ 0.28 µM) | 0.05 (≈ 0.14 µM) | 0.1 (≈ 0.28 µM) | 0.4 (≈ 1.12 µM) | 1.6 (≈ 4.48 µM) | 0.1 (≈ 0.28 µM) | 0.4 (≈ 1.12 µM) | 0.4 (≈ 1.12 µM) | 0.2 (≈ 0.56 µM) | 0.4 (≈ 1.12 µM) | 0.4 (≈ 1.12 µM)
